Test results from ChEMBL document CHEMBL1201862, “PubChem BioAssay data set” (2004).
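96-well plates; 48 h exposure; 5 concentrations. Endpoints by linear interpolation between flanking doses. Not reached: highest tested concentration assigned. GI50 = concentration required for 50% inhibition of growth.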 Calls of active or inactive are those of the source. No stated cut-off is given here; in the data, active = GI50 up to about 1.1 µM and inactive = higher.

How the values were obtained:
Assay in all cases: NCI anticancer screen, dose series, 48 h
A549 = test system: A549
HOP-92 = test system: HOP-92
HCT-116 = test system: HCT-116
UACC-62 = test system: UACC-62
Malme-3M = test system: Malme-3M
ACHN = test system: ACHN
NCI-H23 = test system: NCI-H23
HCT-15 = test system: HCT-15
MCF7 = test system: MCF7
K562 = test system: K562
T47D = test system: T47D
BT-549 = test system: BT-549
HT-29 = test system: HT-29
SF-539 = test system: SF-539
HCC 2998 = test system: HCC 2998
SF-295 = test system: SF-295
M14 = test system: M14
NCI/ADR-RES = test system: NCI/ADR-RES
UACC-257 = test system: UACC-257
COLO 205 = test system: COLO 205
SNB-19 = test system: SNB-19
LOX IMVI = test system: LOX IMVI
HOP-62 = test system: HOP-62
NCI-H460 = test system: NCI-H460
NCI-H226 = test system: NCI-H226
U-251 = test system: U-251
SK-OV-3 = test system: SK-OV-3
TK-10 = test system: TK-10
SF-268 = test system: SF-268
OVCAR-5 = test system: OVCAR-5
DU-145 = test system: DU-145
KM12 = test system: KM12
SK-MEL-5 = test system: SK-MEL-5
SK-MEL-28 = test system: SK-MEL-28
OVCAR-3 = test system: OVCAR-3
CCRF-CEM = test system: CCRF-CEM
CAKI-1 = test system: CAKI-1
SW-620 = test system: SW-620
SK-MEL-2 = test system: SK-MEL-2
A498 = test system: A498
MDA-MB-435 = test system: MDA-MB-435
NCI-H522 = test system: NCI-H522
IGROV-1 = test system: IGROV-1
786-0 = test system: 786-0
EKVX = test system: EKVX
MDA-N = test system: MDA-N
RPMI-8226 = test system: RPMI-8226
PC-3 = test system: PC-3
HL-60 = test system: HL-60
SN12C = test system: SN12C
MOLT-4 = test system: MOLT-4
OVCAR-8 = test system: OVCAR-8
UO-31 = test system: UO-31
Hs-578T = test system: Hs-578T
OVCAR-4 = test system: OVCAR-4
SR = test system: SR
RXF 393 = test system: RXF 393
MDA-MB-231 = test system: MDA-MB-231
SNB-75 = test system: SNB-75

COc1ccccc1-c1cc(O)c2cccnc2n1
GI50 (A549): 55 µM (inactive) | GI50 (HOP-92): 7.89 µM (inactive) | GI50 (HCT-116): 27.5 µM (inactive) | GI50 (UACC-62): 47.5 µM (inactive) | GI50 (Malme-3M): 37.8 µM (inactive) | GI50 (ACHN): 64.1 µM (inactive) | GI50 (NCI-H23): 35.2 µM (inactive) | GI50 (HCT-15): 23.7 µM | GI50 (MCF7): 6.59 µM (inactive) | GI50 (K562): 30.3 µM (inactive) | GI50 (T47D): 69.7 µM (inactive) | GI50 (BT-549): 22.2 µM (inactive) | GI50 (HT-29): 23.4 µM (inactive) | GI50 (SF-539): 56.9 µM (inactive) | GI50 (HCC 2998): > 100 µM (inactive) | GI50 (SF-295): 67.9 µM (inactive) | GI50 (M14): 38.4 µM (inactive) | GI50 (NCI/ADR-RES): 37 µM (inactive) | GI50 (UACC-257): 37.8 µM (inactive) | GI50 (COLO 205): 24.8 µM (inactive) | GI50 (SNB-19): 69.2 µM (inactive) | GI50 (LOX IMVI): 33 µM (inactive) | GI50 (HOP-62): > 100 µM (inactive) | GI50 (NCI-H460): 39.4 µM (inactive) | GI50 (NCI-H226): 49.7 µM (inactive) | GI50 (U-251): 40.3 µM (inactive) | GI50 (SK-OV-3): 58.1 µM (inactive) | GI50 (TK-10): > 100 µM (inactive) | GI50 (SF-268): 72.4 µM (inactive) | GI50 (OVCAR-5): > 100 µM (inactive) | GI50 (DU-145): > 100 µM (inactive) | GI50 (KM12): 35.6 µM (inactive) | GI50 (SK-MEL-5): 31.4 µM (inactive) | GI50 (SK-MEL-28): 82 µM (inactive) | GI50 (OVCAR-3): 36.5 µM (inactive) | GI50 (CCRF-CEM): 22.9 µM (inactive) | GI50 (CAKI-1): 29.4 µM (inactive) | GI50 (SW-620): 30.1 µM (inactive) | GI50 (SK-MEL-2): 36.5 µM (inactive) | GI50 (A498): 54.2 µM (inactive) | GI50 (MDA-MB-435): 23.4 µM (inactive) | GI50 (NCI-H522): 46.9 µM (inactive) | GI50 (IGROV-1): 22.5 µM (inactive) | GI50 (786-0): 76 µM (inactive) | GI50 (EKVX): 53.6 µM (inactive) | GI50 (MDA-N): 20 µM (inactive) | GI50 (RPMI-8226): 44.1 µM (inactive) | GI50 (PC-3): 40.2 µM (inactive) | GI50 (HL-60): 39.3 µM (inactive) | GI50 (SN12C): 50.2 µM (inactive) | GI50 (MOLT-4): 35.2 µM (inactive) | GI50 (OVCAR-8): 37.7 µM (inactive) | GI50 (UO-31): 70.3 µM (inactive) | GI50 (Hs-578T): 61 µM (inactive) | GI50 (OVCAR-4): 69.5 µM (inactive) | GI50 (SR): > 100 µM (inactive) | GI50 (RXF 393): > 100 µM (inactive) | GI50 (MDA-MB-231): 52.6 µM (inactive)

Oc1c2c(c(O)c3ccccc13)C1(N=N2)c2ccccc2Oc2ccccc21
GI50 (A549): 10 µM (inactive) | GI50 (HOP-92): 15.8 µM (inactive) | GI50 (HCT-116): 3.17 µM (inactive) | GI50 (UACC-62): 11.1 µM (inactive) | GI50 (Malme-3M): 2.48 µM (inactive) | GI50 (ACHN): 3.79 µM (inactive) | GI50 (NCI-H23): 15.2 µM (inactive) | GI50 (HCT-15): 2.65 µM | GI50 (MCF7): 3.09 µM (inactive) | GI50 (K562): 9.91 µM (inactive) | GI50 (T47D): 7.55 µM (inactive) | GI50 (BT-549): 10.7 µM (inactive) | GI50 (HT-29): 6.11 µM (inactive) | GI50 (SNB-75): 17.3 µM (inactive) | GI50 (SF-539): 5.74 µM (inactive) | GI50 (HCC 2998): 18.7 µM (inactive) | GI50 (SF-295): 15 µM (inactive) | GI50 (M14): 8.38 µM (inactive) | GI50 (NCI/ADR-RES): 9.57 µM (inactive) | GI50 (UACC-257): 5.71 µM (inactive) | GI50 (COLO 205): 13 µM (inactive) | GI50 (SNB-19): 16.2 µM (inactive) | GI50 (LOX IMVI): 2.38 µM (inactive) | GI50 (HOP-62): 16 µM (inactive) | GI50 (NCI-H460): 18.5 µM (inactive) | GI50 (U-251): 3.9 µM (inactive) | GI50 (SK-OV-3): 16 µM (inactive) | GI50 (TK-10): 6.98 µM (inactive) | GI50 (SF-268): 11.6 µM (inactive) | GI50 (OVCAR-5): 10.2 µM (inactive) | GI50 (DU-145): 8.73 µM (inactive) | GI50 (KM12): 15.4 µM (inactive) | GI50 (SK-MEL-5): 13 µM (inactive) | GI50 (SK-MEL-28): 11.4 µM (inactive) | GI50 (OVCAR-3): 3.01 µM (inactive) | GI50 (CCRF-CEM): 3.2 µM (inactive) | GI50 (CAKI-1): 10.3 µM (inactive) | GI50 (SW-620): 3.64 µM (inactive) | GI50 (SK-MEL-2): 12 µM (inactive) | GI50 (A498): 19 µM (inactive) | GI50 (MDA-MB-435): 4.38 µM (inactive) | GI50 (NCI-H522): 1.98 µM (inactive) | GI50 (IGROV-1): 2.52 µM (inactive) | GI50 (786-0): 3.2 µM (inactive) | GI50 (EKVX): 13 µM (inactive) | GI50 (MDA-N): 6.58 µM (inactive) | GI50 (RPMI-8226): 2.88 µM (inactive) | GI50 (PC-3): 12.5 µM (inactive) | GI50 (HL-60): 7.03 µM (inactive) | GI50 (SN12C): 6.46 µM (inactive) | GI50 (MOLT-4): 4.17 µM (inactive) | GI50 (OVCAR-8): 3.2 µM (inactive) | GI50 (UO-31): 6.68 µM (inactive) | GI50 (Hs-578T): 5.56 µM (inactive) | GI50 (SR): 3.4 µM (inactive) | GI50 (RXF 393): 1.98 µM (inactive) | GI50 (MDA-MB-231): 13.9 µM (inactive)
